Laboratory results reported in PubChem BioAssay (NCI).
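Dose response: 5 concentrations. Exposure: 48 h. Format: 96-well plates. Endpoint: linear interpolation; highest concentration if not reached. Abbreviation: GI50, concentration required for 50% inhibition of growth. TGI is the concentration that stops growth completely.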

Tests used:
Test in all cases: inhibition of tumour cell growth, NCI panel, 48 h
RXF 393 renal = tested on: RXF 393 renal
SF-539 CNS = tested on: SF-539 CNS
NCI/ADR-RES ovarian = tested on: NCI/ADR-RES ovarian
HT29 colon = tested on: HT29 colon
SW-620 colon = tested on: SW-620 colon
A549 NSCLC = tested on: A549 NSCLC
SF-268 CNS = tested on: SF-268 CNS
OVCAR-3 ovarian = tested on: OVCAR-3 ovarian
CAKI-1 renal = tested on: CAKI-1 renal
HOP-92 NSCLC = tested on: HOP-92 NSCLC

Row | Compound | TGI (RXF 393 renal) | TGI (SF-539 CNS) | TGI (NCI/ADR-RES ovarian) | TGI (HT29 colon) | TGI (SW-620 colon) | TGI (A549 NSCLC) | TGI (SF-268 CNS) | TGI (OVCAR-3 ovarian) | TGI (CAKI-1 renal) | TGI (HOP-92 NSCLC) | GI50 (RXF 393 renal) | GI50 (SF-539 CNS) | GI50 (NCI/ADR-RES ovarian) | GI50 (HT29 colon) | GI50 (SW-620 colon) | GI50 (A549 NSCLC) | GI50 (SF-268 CNS) | GI50 (OVCAR-3 ovarian) | GI50 (CAKI-1 renal) | GI50 (HOP-92 NSCLC)
1 | COc1ccc(C2=[S+]C(c3ccccc3)(c3ccccc3)c3ccccc32)cc1 | 26 µM | 40.4 µM | > 100 µM | 30.3 µM | > 100 µM | > 100 µM | > 100 µM | 43.6 µM | > 100 µM | 39.4 µM |  |  |  |  |  |  |  |  |  | 
2 | O=c1nc2ccc([N+](=O)[O-])cc2[n+]([O-])[nH]1 | > 100 µM | > 100 µM | > 100 µM | > 100 µM | > 100 µM | > 100 µM | > 100 µM | > 100 µM | > 100 µM | > 100 µM |  |  |  |  |  |  |  |  |  | 
3 | C/C(=N\NC(=O)c1ccc(Cl)cc1)c1nc2ncccc2[nH]1 | 55.4 µM | 40.3 µM | 50.1 µM | > 100 µM | > 100 µM | > 100 µM | > 100 µM | 81.5 µM | > 100 µM |  |  |  |  |  |  |  |  |  |  | 
4 | COc1cc(-c2ccc(N=Nc3ccc4c(S(=O)(=O)O)cc(S(=O)(=O)O)c(N)c4c3O)c(OC)c2)ccc1N=Nc1ccc2c(S(=O)(=O)O)cc(S(=O)(=O)O)c(N)c2c1O | > 100 µM | > 100 µM | > 100 µM | > 100 µM | > 100 µM | > 100 µM | > 100 µM | > 100 µM |  | > 100 µM |  |  |  |  |  |  |  |  |  | 
5 | N#[N+]c1c([O-])c2ccccc2c2ccccc12 | 45 µM | 91 µM | > 100 µM | > 100 µM | > 100 µM | > 100 µM | > 100 µM | > 100 µM | > 100 µM | > 100 µM |  |  |  |  |  |  |  |  |  | 
6 | CCOC(=O)NC(Nc1cc(Cl)ccc1OC)(C(F)(F)F)C(F)(F)F | > 100 µM | > 100 µM |  | > 100 µM | > 100 µM | > 100 µM | > 100 µM | > 100 µM | > 100 µM | > 100 µM |  |  |  |  |  |  |  |  |  | 
7 | c1ccc2c(c1)NCc1cc3ccccc3nc1O2 | > 100 µM | > 100 µM | > 100 µM | > 100 µM | > 100 µM | > 100 µM | > 100 µM | > 100 µM | > 100 µM | > 100 µM |  |  |  |  |  |  |  |  |  | 
8 | CCOC(=O)/C=C/c1c(C)[nH]c(=O)[nH]c1=O | > 250 µM | > 250 µM | > 250 µM | > 250 µM | > 250 µM | > 250 µM | > 250 µM | > 250 µM | > 234 µM | > 25 µM |  |  |  |  |  |  |  |  |  | 
9 | O=C1CCC[C@H]2O[C@@H](COC(=O)c3ccccc3)C[C@H]2O1 |  | > 100 µM | > 100 µM | > 100 µM | > 100 µM | > 100 µM | > 100 µM | > 100 µM | > 100 µM | > 100 µM |  |  |  |  |  |  |  |  |  | 
10 | c1cc2c3c(c1)c1cc4c(cc1c[n+]3CC2)OCO4 | 32.5 µM | 15.4 µM | > 225 µM | 67 µM | 109 µM | 10.2 µM | 5.26 µM | 16.2 µM | 120 µM | 106 µM |  |  |  |  |  |  |  |  |  | 
11 | Cc1ccc(Cl)cc1N=NC(=O)NNc1cc(Cl)ccc1C | 72.7 µM |  | 63.9 µM | 80.6 µM |  |  |  | 37 µM | 45.1 µM | 35.8 µM |  |  |  |  |  |  |  |  |  | 
12 | O=C1C(CO)=C[C@H](O)[C@H]2O[C@@H]12 | 402 µM | > 562 µM | 449 µM | > 625 µM | 284 µM | > 394 µM | 298 µM | 406 µM | 514 µM | 525 µM |  |  |  |  |  |  |  |  |  | 
13 | c1ccc2c(c1)c1ccccc1n2Cn1c2ccccc2c2ccccc21 | > 100 µM |  | > 100 µM | > 100 µM | > 100 µM | > 100 µM | > 100 µM | > 100 µM | > 100 µM | > 100 µM |  |  |  |  |  |  |  |  |  | 
14 | Cc1cn(-c2cccc(NC(=O)c3ccc(C)c(Nc4nccc(-c5cccnc5)n4)c3)c2)cn1 | 3.03 µM | 2.97 µM | 10.1 µM | 3.74 µM | 4.76 µM | 3.34 µM | 9.58 µM | 3.84 µM | 3.05 µM | 2.51 µM | 1.62 µM | 1.45 µM | 2.83 µM | 1.98 µM | 2.25 µM | 1.55 µM | 2.92 µM | 1.95 µM | 1.6 µM | 1.18 µM
15 | COc1cccc2c1C(=O)c1c(O)c3c(c(O)c1C2=O)C[C@@](O)(C(=O)COC(=O)c1ccccc1)C[C@@H]3OC1CC(N)C(O)C(C)O1 (some centres not stated) | 0.859 µM | 1.13 µM | 4.1 µM | 0.273 µM | 0.253 µM |  | 1.34 µM | 1.42 µM | 2.11 µM | 0.392 µM | 0.195 µM | 0.254 µM | 1.44 µM | 0.102 µM | 0.0448 µM |  | 0.173 µM | 0.369 µM | 0.701 µM | 0.0638 µM
16 | O=C(NN1C(=O)C(Cl)C1c1cccc([N+](=O)[O-])c1)c1ccccc1O (configuration not stated) | > 100 µM | > 100 µM |  | > 100 µM | > 100 µM | > 100 µM | > 100 µM | > 100 µM |  | > 100 µM |  |  |  |  |  |  |  |  |  | 
17 | Cc1cc(N/N=C/c2nc(-c3ccc(Cl)cc3)oc2C)c2cc(Br)ccc2n1 | 17.2 µM | 3.69 µM | 4.94 µM | 5.99 µM | 4.23 µM | 3.71 µM | 28.2 µM | 3.89 µM | 4.71 µM | 16.4 µM | 4.1 µM | 1.9 µM | 2.17 µM | 2.31 µM | 1.87 µM | 1.77 µM | 3.7 µM | 1.96 µM | 2.04 µM | 3.24 µM
18 | C/C(=N\NC(=S)N1CCC(N2CCCCC2)CC1)c1ccccn1 | 2.29 µM | 8.36 µM | 5.67 µM | 9.88 µM | 12.2 µM | 10.3 µM | 12.9 µM | 13.4 µM | 5.87 µM | 9.79 µM |  |  |  |  |  |  |  |  |  | 
